Laboratory results: patent US20140017187A1, “Use of 5-(7-methoxy-3,3-dimethyl-2,3-dihydro-1-benzoxepin-5-yl)-3-methyl-penta-2,4-dienoic acid as a cosmetic” (Merck Patent GmbH, priority 2008, published 2014)

Columns and labels:
[1] = Phototoxic and photo-allergenic potential (in house data)
[2] = tested on: human skin model; assay: cDNA microarray gene expression profiling (Affymetrix) of treated skin equivalents, GeneGO MetaCore analysis; assay type: cell-based
Procedure: One of the advantages of cDNA microarray is the possibility to observe the expression pattern of the whole genes and compare with different conditions. This is the first study to determine the gene expression profiles of Compound-treated human skin. For the analysis of deregulated gene expression induced by substance Compound, treated and control samples from a human skin model were analyzed with Affymetrix oligonucleotide microarrays. Skin has been among the first organs analysed using DNA-Microarrays. In addition, epidermal keratinocytes have been the target of many studies because they respond to a rich variety of inflammatory and immunmodulating cytokines, hormones, vitamins, ultraviolet (UV) light, toxins and physical injury. Altered gene expression after applying substance Compound was analysed with an Affymetrix system.
For gene expression studies skin equivalents were treated with 50 μL of 2 relevant substance Compound with a concentration of c=50 μM in PBS-buffer/DMSO. Buffer-treated skin equivalents served as controls.
A ratio (log 2) value of zero indicates no regulation, whereas positive (log 2) values indicate an upregulation and negative (log 2) values a downregulation of the relevant gene.
The experiment contains 759 genes with the specified threshold (Appendix A)
GeneGO's Metacore (Pathways and Maps) Software.
Enrichment analysis consists of matching gene IDs for the common, similar and unique sets of the uploaded files with gene IDs in functional ontologies in MetaCore. The ontologies include canonical pathway maps, GeneGo cellular processes, GO cellular processes and diseases categories. The degree of “relevance” to different categories for the uploaded datasets is defined by p-values, so that the lower p-value gets higher priority.

[3] = tested on: B16-V melanoma cells; assay: Inhibition of melanin synthesis in B16-V melanoma cells (alpha-MSH stimulated); assay type: cell-based; conditions: 72 h, alpha-MSH stimulation
Procedure: DMSO is the solvent as negative and IBMX (3-Isobutyl-1-methylxantine) is our positive control. Kojic acid (KA) is the known reference ingredient for skin whitening.
B16-V melanoma cells were incubated for 72 h with assay medium containing different amounts of test substances. The concentration depends on the results of the MTT-Assay. Only concentrations without effect on viability (after 24 h incubation) were used for further melanin evaluation. Every 24 hours medium was changed and replaced by fresh assay medium containing the compounds and alpha-MSH (stimulation of melanin synthesis). The cell number was determined and the cells got lysed using 1M NaOH. Afterwards the amount of melanin was measured at 405 nm with a microplatereader (Safire2™, Tecan). Different concentrations of synthetic melanin were used to produce a calibration curve. Melanin content was expressed as pg/cell.

[4] = tested on: animal models; assay: Toxicity studies in animal models (in house data); conditions: in vivo
[5] = cDNA microarray, skin equivalents, 50 μM

In the case of COc1ccc2c(c1)C(/C=C/C(C)=C/C(=O)O)=CC(C)(C)CO2 [Compound, 5-(7-methoxy-3,3-dimethyl-2,3-dihydro-1-benzoxepin-5-yl)-3-methyl-penta-2,4-dienoic acid], the phototoxicity [1] is reported as “no phototoxic”, the “Ratio as Log2 value, gene CASP14” value ([2]; Caspase 14 precursor, skin equivalents, 50 μM, vs buffer-treated control) is reported as 1.44 Log2 and the “Ratio as Log2 value, gene UGCG” value ([2]; Ceramide glucosyltransferase, skin equivalents, 50 μM, vs buffer-treated control) is reported as 0.7977 Log2. For the same compound, the “Ratio as Log2 value, gene CDSN” value ([2]; Corneodesmosin precursor, skin equivalents, 50 μM, vs buffer-treated control) was 1.207 Log2, the “Ratio as Log2 value, gene ELF3” value ([2]; ETS-related transcription factor Elf-3, skin equivalents, 50 μM, vs buffer-treated control) was −1.46 Log2 and the “Ratio as Log2 value, gene EMP1” value ([2]; Epithelial membrane protein 1, skin equivalents, 50 μM, vs buffer-treated control) was 1.278 Log2. The “Ratio as Log2 value, gene KRT34” value ([2]; Keratin, type I cuticular Ha4, skin equivalents, 50 μM, vs buffer-treated control) was 1.695 Log2, the “Ratio as Log2 value, gene KRT10” value ([2]; Keratin, type I cytoskeletal 10, skin equivalents, 50 μM, vs buffer-treated control) was −0.6644 Log2 and the “Ratio as Log2 value, gene KRT13” value ([2]; Keratin, type I cytoskeletal 13, skin equivalents, 50 μM, vs buffer-treated control) was −0.8963 Log2. The “Ratio as Log2 value, gene LAMA3” value ([2]; Laminin subunit alpha-3 precursor, skin equivalents, 50 μM, vs buffer-treated control) was 0.6648 Log2, the “Ratio as Log2 value, gene LAMB3” value ([2]; Laminin subunit beta-3 precursor, skin equivalents, 50 μM, vs buffer-treated control) was 1.168 Log2 and the “Ratio as Log2 value, gene LCE2B” value ([2]; Late cornified envelope protein 2B, skin equivalents, 50 μM, vs buffer-treated control) was 1.326 Log2. For the same compound, the “Ratio as Log2 value, gene PTHLH” value ([2]; Parathyroid hormone-related protein, skin equivalents, 50 μM, vs buffer-treated control) was −0.7916 Log2, the “Ratio as Log2 value, gene S100a7” value ([2]; Protein S100-A7, skin equivalents, 50 μM, vs buffer-treated control) was −0.6784 Log2 and the “Ratio as Log2 value, gene OVOL1” value ([2]; Putative transcription factor Ovo-like 1, skin equivalents, 50 μM, vs buffer-treated control) was 1.064 Log2. The “expression of FABP4 and Leptin” value ([2]; cDNA microarray data) was “significantly upregulated”, the “expression of Caspase 14, P57/KIP2” value [2, 5] was “significantly upregulated” and the “expression of Fibronectin, Elastin and Laminin” value [2, 5] was “upregulated significantly”. The “expression of HAS2 gene (hyaluronan synthase 2)” value [2, 5] was “upregulated”, the “expression of IL-6, TNF-alpha induced proteins, IL-8, CCL8, CCL2, CXCL2, CXCL12, CXCL3, CXCL5 and ICAM-1” value [2, 5] was “significantly downregulated” and the “expression of MMP genes MMP9, MMP14, MMP11” value [2, 5] was “down regulated”. For the same compound, the “expression of RXRA (retinoid X receptors A)” value [2, 5] was “upregulation”, the “expression of S100A7, S100A7A and S100A12” value [2, 5] was “downregulated” and the “expression of SCARB, INSIG2, ATP binding cassette and VLDLR genes” value [2, 5] was “upregulation”. The “Compound vs. Control, ratio Log(2) value” ([2]; gene ABCG1 (ABCG1_HUMAN, ATP-binding cassette sub-family G member 1)) was 1.297 Log(2), the “Compound vs. Control, ratio Log(2) value” ([2]; gene CASP14 (CASPE_HUMAN, Caspase-14 precursor)) was 1.44 Log(2) and the “Compound vs. Control, ratio Log(2) value” ([2]; gene CCL2 (CCL2_HUMAN, C-C motif chemokine 2 precursor)) was −1.731 Log(2). The “Compound vs. Control, ratio Log(2) value” ([2]; gene CCL8 (CCL8_HUMAN, C-C motif chemokine 8 precursor)) was −2.505 Log(2), the “Compound vs. Control, ratio Log(2) value” ([2]; gene CDKN1C (CDN1C_HUMAN, Cyclin-dependent kinase inhibitor 1C)) was 0.8737 Log(2) and the “Compound vs. Control, ratio Log(2) value” ([2]; gene CERK (CERK1_HUMAN, Ceramide kinase)) was 0.729 Log(2). For the same compound, the “Compound vs. Control, ratio Log(2) value” ([2]; gene CLDN17 (CLD17_HUMAN, Claudin-17)) was 2.19 Log(2), the “Compound vs. Control, ratio Log(2) value” ([2]; gene COL4A3BP (C43BP_HUMAN, Collagen type IV alpha-3-binding protein)) was 1.233 Log(2) and the “Compound vs. Control, ratio Log(2) value” ([2]; gene CXCL2 (MIP2A_HUMAN, Macrophage inflammatory protein 2-alpha precursor)) was −1.267 Log(2). For the same compound, the “Compound vs. Control, ratio Log(2) value” ([2]; gene CXCL3 (MIP2B_HUMAN, Macrophage inflammatory protein 2-beta precursor)) was −0.723 Log(2), the “Compound vs. Control, ratio Log(2) value” ([2]; gene CXCL5 (CXCL5_HUMAN, C-X-C motif chemokine 5 precursor)) was −0.8263 Log(2) and the “Compound vs. Control, ratio Log(2) value” ([2]; gene CXCL12 (SDF1_HUMAN, Stromal cell-derived factor 1 precursor)) was −0.8377 Log(2). For the same compound, the “Compound vs. Control, ratio Log(2) value” ([2]; gene EGFR (EGFR_HUMAN, Epidermal growth factor receptor precursor)) was 0.9876 Log(2), the “Compound vs. Control, ratio Log(2) value” ([2]; gene ELF3 (ELF3_HUMAN, ETS-related transcription factor Elf-3)) was −1.46 Log(2) and the “Compound vs. Control, ratio Log(2) value” ([2]; gene ELN (ELN_HUMAN, Elastin precursor)) was 0.7751 Log(2). For the same compound, the “Compound vs. Control, ratio Log(2) value” ([2]; gene EMP1 (EMP1_HUMAN, Epithelial membrane protein 1)) was 1.278 Log(2), the “Compound vs. Control, ratio Log(2) value” ([2]; gene EMR2 (EMR2_HUMAN, EGF-like module-containing mucin-like hormone receptor-like 2 precursor)) was 1.286 Log(2) and the “Compound vs. Control, ratio Log(2) value” ([2]; gene FABP4 (FABPA_HUMAN, Fatty acid-binding protein, adipocyte)) was 2.125 Log(2). The “Compound vs. Control, ratio Log(2) value” ([2]; gene FGF11 (FGF11_HUMAN, Fibroblast growth factor 11)) was 0.9322 Log(2), the “Compound vs. Control, ratio Log(2) value” ([2]; gene FLNB (FLNB_HUMAN, Filamin-B)) was 0.6681 Log(2) and the “Compound vs. Control, ratio Log(2) value” ([2]; gene FN1 (FINC_HUMAN, Fibronectin precursor)) was 1.364 Log(2). The “Compound vs. Control, ratio Log(2) value” ([2]; gene GPC4 (GPC4_HUMAN, Glypican-4 precursor)) was 0.7558 Log(2), the “Compound vs. Control, ratio Log(2) value” ([2]; gene GPC6 (GPC6_HUMAN, Glypican-6 precursor)) was 0.6711 Log(2) and the “Compound vs. Control, ratio Log(2) value” ([2]; gene GPX7 (GPX7_HUMAN, Glutathione peroxidase 7 precursor)) was 0.8162 Log(2). For the same compound, the “Compound vs. Control, ratio Log(2) value” ([2]; gene HAS2 (HAS2_HUMAN, Hyaluronan synthase 2)) was 0.8154 Log(2), the “Compound vs. Control, ratio Log(2) value” ([2]; gene ICAM1 (ICAM1_HUMAN, Intercellular adhesion molecule 1 precursor)) was −1.612 Log(2) and the “Compound vs. Control, ratio Log(2) value” ([2]; gene IL6 (IL6_HUMAN, Interleukin-6 precursor)) was −1.09 Log(2). The “Compound vs. Control, ratio Log(2) value” ([2]; gene IL6ST (IL6RB_HUMAN, Interleukin-6 receptor subunit beta precursor)) was −1.628 Log(2), the “Compound vs. Control, ratio Log(2) value” ([2]; gene IL8 (IL8_HUMAN, Interleukin-8 precursor)) was −0.6883 Log(2) and the “Compound vs. Control, ratio Log(2) value” ([2]; gene INSIG2 (INSI2_HUMAN, Insulin-induced gene 2 protein)) was 0.6645 Log(2). For the same compound, the “Compound vs. Control, ratio Log(2) value” ([2]; gene ITGB5 (ITB5_HUMAN, Integrin beta-5 precursor)) was 0.7305 Log(2), the “Compound vs. Control, ratio Log(2) value” ([2]; gene ITIH5 (ITIH5_80760, inter-alpha (globulin) inhibitor H5)) was 1.192 Log(2) and the “Compound vs. Control, ratio Log(2) value” ([2]; gene LAMA3 (LAMA3_HUMAN, Laminin subunit alpha-3 precursor)) was 0.6648 Log(2). The “Compound vs. Control, ratio Log(2) value” ([2]; gene LAMB3 (LAMB3_HUMAN, Laminin subunit beta-3 precursor)) was 1.168 Log(2), the “Compound vs. Control, ratio Log(2) value” ([2]; gene LAMC1 (LAMC1_HUMAN, Laminin subunit gamma-1 precursor)) was 0.7744 Log(2) and the “Compound vs. Control, ratio Log(2) value” ([2]; gene LEP (LEP_HUMAN, Leptin precursor)) was 3.891 Log(2). For the same compound, the “Compound vs. Control, ratio Log(2) value” ([2]; gene LEPR (LEPR_HUMAN, Leptin receptor precursor)) was 0.7216 Log(2), the “Compound vs. Control, ratio Log(2) value” ([2]; gene MMP9 (MMP9_HUMAN, Matrix metalloproteinase-9 precursor)) was −0.8347 Log(2) and the “Compound vs. Control, ratio Log(2) value” ([2]; gene MMP11 (MMP11_HUMAN, Stromelysin-3 precursor)) was −1.085 Log(2). For the same compound, the “Compound vs. Control, ratio Log(2) value” ([2]; gene MMP14 (MMP14_HUMAN, Matrix metalloproteinase-14 precursor)) was −0.6909 Log(2), the “Compound vs. Control, ratio Log(2) value” ([2]; gene PLOD2 (PLOD2_HUMAN, Procollagen-lysine,2-oxoglutarate 5-dioxygenase 2 precursor)) was 1.455 Log(2) and the “Compound vs. Control, ratio Log(2) value” ([2]; gene RXRA (RXRA_HUMAN, Retinoic acid receptor RXR-alpha)) was 0.7793 Log(2). The “Compound vs. Control, ratio Log(2) value” ([2]; gene S100A7 (S10A7_HUMAN, Protein S100-A7)) was −0.6784 Log(2), the “Compound vs. Control, ratio Log(2) value” ([2]; gene S100A7A (S1A7A_HUMAN, Protein S100-A7A)) was −2.659 Log(2) and the “Compound vs. Control, ratio Log(2) value” ([2]; gene S100A12 (S10AC_HUMAN, Protein S100-A12)) was −0.7202 Log(2). For the same compound, the “Compound vs. Control, ratio Log(2) value” ([2]; gene SCARB1 (SCRB1_HUMAN, Scavenger receptor class B member 1)) was 0.8349 Log(2), the “Compound vs. Control, ratio Log(2) value” ([2]; gene TGFA (TGFA_HUMAN, Protransforming growth factor alpha precursor)) was 0.8031 Log(2) and the “Compound vs. Control, ratio Log(2) value” ([2]; gene UGCG (CEGT_HUMAN, Ceramide glucosyltransferase)) was 0.7977 Log(2). The “Compound vs. Control, ratio Log(2) value” ([2]; gene VLDLR (VLDLR_HUMAN, Very low-density lipoprotein receptor precursor)) was 0.9666 Log(2), the “effect on GPC6 and S100A7 genes compared with old skin” value ([2]; old skin (literature): S100A7 upregulated, GPC6 downregulated) was “opposite effect” and the “melanin inhibiting activity (melanin content pg/cell, FIG. 1)” value [3] was “superb melanin inhibiting activity”. For the same compound, the “melanin inhibiting activity compared with kojic acid (FIG. 1)” value [3] was “significantly better than kojic acid” and the “cell proliferation or apoptosis” value [4] was “no indication”.
